From PMC3220813 (Cancer Chemotherapy and Pharmacology, 2011)
In brackets after ≈: the same amount, converted by molar mass. Read-outs that look alike come from different tables or passages of the source. Marks after values point to notes of the source that are not given here. Blank lines part the entries; values can stand above or below the molecule they belong to.

Legend:
[1] = cited from earlier work; for increase in drug exposure with a high-fat meal: CI-1040 at 800 and 1,600 mg
[2] = format: in vivo, human; settings: for AUC0–t, geometric mean / AUC, geometric mean / Cmax, geometric mean / t1/2, geometric mean / tmax, median / CL/F, geometric mean / Vd/F: PP population; for time up to which measurable plasma concentrations were observed: both fed and fasted periods; for Vd/F: Vz/F, geometric mean
[3] = tested on: purified MEK1; settings: cited from earlier work
[4] = cited from earlier work
[5] = Safety and tolerability; format: in vivo, human
[6] = tested on: advanced solid malignancies; assay: Objective tumor response by RECIST 1.0; format: in vivo, human; settings: 28 evaluable patients, both cutaneous melanoma
[7] = Classification by permeability and solubility; settings: tentative; class IV = low permeability and low solubility
[8] = tested on: various other kinases, enzymes, receptors, ion channels, and transporters; settings: cited from earlier work
[9] = ref data on file, cited from earlier work
[10] = tested on: Caco-2 cells; settings: ref data on file; cited from earlier work
[11] = in vivo; cited from earlier work
[12] = Fasted, metabolite after 75 mg selumetinib
[13] = Fed, metabolite after 75 mg selumetinib
[14] = AEs ≥10% of patients, safety population N = 30
[15] = reported in ≥2 patients, safety population, Total (N = 11)

SMILES: O=C(NOCC1CC1)c1ccc(F)c(F)c1Nc1ccc(I)cc1Cl [CI-1040]
- increase in drug exposure with a high-fat meal [1]: 4.5 fold
- MTD and recommended Phase II dose (RP2D) ([1]; administered with food): 800 mg BID

- AUC0–t, geometric mean [2, 12]: 376.4 ng/h/mL
- AUC, geometric mean [2, 12]: 418.4 ng·h/mL
- Cmax, geometric mean [2, 12]: 73.9 ng/mL
- t1/2, geometric mean [2, 12]: 7.7 h
- tmax, median [2, 12]: 1.50^a h
- AUC0–t, geometric mean [2, 13]: 282.4 ng/h/mL
- AUC, geometric mean [2, 13]: 379.1 ng·h/mL
- Cmax, geometric mean [2, 13]: 33.5 ng/mL
- t1/2, geometric mean [2, 13]: 6.8 h
- tmax, median [2, 13]: 4.0^a h
- time up to which measurable plasma concentrations were observed [2]: up to 24 h
- ratio of N-desmethyl-selumetinib to selumetinib (metabolite to parent) ([2]; fasted state): 0.07
- ratio of N-desmethyl-selumetinib to selumetinib (metabolite to parent) ([2]; fed state): 0.06
- delay of median tmax in the fed condition ([2]; metabolite after 75 mg selumetinib): approximately 3 h
SMILES: O=C(NOCCO)c1cc2nc[nH]c2c(F)c1Nc1ccc(Br)cc1Cl [N-desmethyl-selumetinib]
- greater potency for MEK1 inhibition than selumetinib ([3]; in vitro): 3- to 5 fold
- AUC relative to parent compound ([4]; plasma metabolite exposure): < 15%
- Cmax relative to parent compound ([4]; plasma metabolite exposure): < 15%

SMILES: O=C(O)c1ccc(F)c(F)c1Nc1ccc(I)cc1Cl [PD-0184264]
- increase in drug exposure with a high-fat meal [1]: 5 fold

SMILES: Cn1cnc2c(F)c(Nc3ccc(Br)cc3Cl)c(C(N)=O)cc21 [selumetinib amide]
- less active than selumetinib [3]: up to 50 fold

SMILES: Cn1cnc2c(F)c(Nc3ccc(Br)cc3Cl)c(C(=O)NOCCO)cc21 [selumetinib]
- delay of median tmax in the presence of food ([2]; 75 mg, fed minus fasted): approximately 2.5 h
- CL/F, geometric mean ([2]; Fasted): 12.9 L/h
- CL/F, geometric mean ([2]; Fed): 16.0 L/h
- time up to which measurable plasma concentrations were observed [2]: up to 48 h
- AUC(0-t) ([2]; human, plasma, oral, 75 mg): 5640 ng·h/mL
- Vd/F ([2]; human, plasma, oral, 75 mg, Fasted): 175 L
- Vd/F ([2]; human, plasma, oral, 75 mg, Fed): 199 L
- tolerability / safety profile ([5]; 75 mg, advanced cancer population): well tolerated
- Abdominal pain, number (%) of patients [5, 14]: 8 (26.7) Number (%) of patients
- Anemia, number (%) of patients [5, 14]: 7 (23.3) Number (%) of patients
- Constipation, number (%) of patients [5, 14]: 11 (36.7) Number (%) of patients
- Diarrhea, number (%) of patients [5, 14]: 14 (46.7) Number (%) of patients
- Dizziness, number (%) of patients [5, 14]: 8 (26.7) Number (%) of patients
- Dyspnoea, number (%) of patients [5, 14]: 10 (33.3) Number (%) of patients
- Edema peripheral, number (%) of patients [5, 14]: 7 (23.3) Number (%) of patients
- Fatigue, number (%) of patients [5, 14]: 13 (43.3) Number (%) of patients
- Headache, number (%) of patients [5, 14]: 7 (23.3) Number (%) of patients
- Nausea, number (%) of patients [5, 14]: 18 (60.0) Number (%) of patients
- Rash, number (%) of patients [5, 14]: 16 (53.3) Number (%) of patients
- Vomiting, number (%) of patients [5, 14]: 9 (30.0) Number (%) of patients
- patients with one or more dose reductions ([5]; extension part, 75 mg BD, largely due to AEs (n = 6)): 10 patients
- patients who died whilst on study ([5]; intestinal perforation due to disease progression): 3.3%
- patients with grade 4 AEs ([5]; not considered causally related to study treatment): 6.7%
- patients reporting an AE of grade 3 or higher ([5]; overall safety population, 30 patients): 60.0%
- Abdominal pain, SAE of ≥CTC grade 3, number (%) of patients [5, 15]: 2 (6.7) Number (%) of patients
- Anemia, SAE of ≥CTC grade 3, number (%) of patients [5, 15]: 2 (6.7) Number (%) of patients
- Constipation, SAE of ≥CTC grade 3, number (%) of patients [5, 15]: 2 (6.7) Number (%) of patients
- Dyspnoea, SAE of ≥CTC grade 3, number (%) of patients [5, 15]: 3 (10.0) Number (%) of patients
- Vomiting, SAE of ≥CTC grade 3, number (%) of patients [5, 15]: 2 (6.7) Number (%) of patients
- partial responses [6]: 7.1%
- class (permeability/solubility classification) [7]: tentative class IV
- IC50 ([3]; read-out: IC50 against purified MEK1): 14 nM
- activity against various other kinases, enzymes, receptors, ion channels, and transporters [8]: did not show significant activity
- solubility ([9]; pH1): 274 µg/mL (≈ 599 µM)
- solubility ([9]; pH 7.4): 3.4 µg/mL (≈ 7.43 µM)
- permeability across Caco-2 cells [10]: moderate permeability
- route of excretion [11]: predominantly via the feces
- total body clearance from plasma after an oral dose (CL/F) ([4]; across studied dose range): 12 to 23 L/h
- volume of distribution at steady state (Vss/F) ([4]; across studied dose range): 87 to 126 L
- terminal elimination half-life (t1/2) ([4]; single dose): 5 to 8 h
